Reference: patent US8906879B2, “Combination for the treatment of cancer” (GlaxoSmithKline Intellectual Property (No. 2) Limited, priority 2010, dated 2014)

Tests used:
HPAF-II = test: Cell growth inhibition assay (Cell Titer Glo), HPAF-II; format: cell-based; conditions: Homo sapiens, 72 h, single agent, KRAS G12D, 3 days
Protocol: (§1) BxPC-3, HuP-T4, PL45, Panc-02-03, Mia-PaCa, HPAF-II, SW1990, Panc-08-13, Capan-1, AsPC-1, Capan-2, HPAC, YAPC and Panc-1 lines were used in the study. BxPC-3, Mia-PaCa, HPAF-11, SW1990, AsPC-1, Capan-2 and YAPC were cultured in RPMI 1640 medium (cat#72400 047, Invitrogen) containing 10% fetal bovine serum (FBS) (cat#SH30071.03, Hyclone). Capan-1 and HuP-T4 were cultured in RPMI 1640 medium containing 20% FBS. PL45 and PANC-1 lines were cultured in DMEM (ATCC 30-2002) containing 10% FBS. Panc-02-03 and Panc-08-13 were cultured in RPMI 1640 medium containing 15% fetal bovine serum and ITSX (51500-056, Gibco). HPAC was cultured in RPMI 1640 medium containing 5% FBS, ITSX, 40 ng/ml Hydrocortism, and 10 ng/ml EGF (85570C-1MG, SAFC Biosciences).
(§2) All cells were cultured for a minimum of 72 hours prior to cell plating. […] ATP levels were determined by adding Cell Titer Glo® (Promega) according to the manufacturer's protocol. Briefly, Cell Titer Glo® was added to each plate, incubated for 30 minutes and then the luminescent signal was read on the SpectraMax L plate reader with a 0.5 sec integration time.
(§3) Inhibition of cell growth was estimated after treatment with compound or combination of compounds for three days and the signal was compared to cells treated with vehicle (DMSO). Cell growth was calculated relative to vehicle (DMSO) treated control wells. […]

Panc-02-03 = test: Cell growth inhibition assay (Cell Titer Glo), Panc-02-03; format: cell-based; conditions: Homo sapiens, Panc 02.03, 72 h; single agent; Panc-02-03, KRAS G12D; 3 days
Protocol: as §1, §2, §3

HPAC = test: Cell growth inhibition assay (Cell Titer Glo), HPAC; format: cell-based; conditions: Homo sapiens, 72 h, single agent, KRAS G12D, 3 days
Protocol: as §1, §2, §3

Panc-08-13 = test: Cell growth inhibition assay (Cell Titer Glo), Panc-08-13; format: cell-based; conditions: Homo sapiens, 72 h; single agent; Panc-08-13, KRAS G12D; 3 days
Protocol: as §1, §2, §3

Capan-1 = test: Cell growth inhibition assay (Cell Titer Glo), Capan-1; format: cell-based; conditions: Homo sapiens, 72 h; single agent; Capan-1, KRAS G12V; 3 days
Protocol: as §1, §2, §3

Capan-2 = test: Cell growth inhibition assay (Cell Titer Glo), Capan-2; format: cell-based; conditions: Homo sapiens, 72 h; single agent; Capan-2, KRAS G12V; 3 days
Protocol: as §1, §2, §3

BxPC-3 = test: Cell growth inhibition assay (Cell Titer Glo), BxPC-3; format: cell-based; conditions: Homo sapiens, 72 h; single agent; BxPC-3, KRAS WT; 3 days
Protocol: as §1, §2, §3

YAPC = test: Cell growth inhibition assay (Cell Titer Glo), YAPC; format: cell-based; conditions: Homo sapiens, 72 h, single agent, KRAS G12V, 3 days
Protocol: as §1, §2, §3

SW1990 = test: Cell growth inhibition assay (Cell Titer Glo), SW1990; format: cell-based; conditions: Homo sapiens, 72 h; single agent; SW1990, KRAS G12D; 3 days
Protocol: as §1, §2, §3

Mia-PaCa = test: Cell growth inhibition assay (Cell Titer Glo), Mia-PaCa; format: cell-based; conditions: Homo sapiens, MIA PaCa-2, 72 h, single agent, KRAS G12C, 3 days
Protocol: as §1, §2, §3

[1] = test system: KRAS mutant tumor lines, HuP-T4, PL45, Panc-02-03 and Mia-PaCa; test: Cell growth inhibition assay, four KRAS mutant lines; format: cell-based; conditions: Homo sapiens; single agent; range over HuP-T4, PL45, Panc-02-03 and Mia-PaCa
Protocol: as §1
(§4) All cells were cultured for a minimum of 72 hours prior to cell plating. Cells were assayed in a 96-well tissue culture plate (NUNC 136102) of RPMI medium containing 10% FBS for all cells at 1,000 cells per well. Approximately 24 hours after plating, cells were exposed to ten, three-fold serial dilutions of compound or the combination of the two agents at a constant molar to molar ratio of 1:1 Compound A to Compound B in RPMI media containing 10% FBS. Cells were incubated in the presence of compounds for 3 days. ATP levels were determined by adding Cell Titer Glo® (Promega) according to the manufacturer's protocol. Briefly, Cell Titer Glo® was added to each plate, incubated for 30 minutes and then the luminescent signal was read on the SpectraMax L plate reader with a 0.5 sec integration time.
as §3
(§5) Combination effects on potency were evaluated using Combination Index (CI) which was calculated with the back-interpolated IC50 values and the mutually non-exclusive equation derived by Chou and Talalay: CI=Da/IC50(a)+Db/IC50(b)+(Da×Db)/(IC50(a)×IC50(b)) […]
(§6) The combination effects on the response scale were quantified by Excess Over Highest Single Agent (EOHSA) based on the concept of nonlinear blending as described in detail by Liu et al, 2011. […] For single agent and combination treatments, cells were exposed to compounds at a fixed-dose-ratio, and dose response curves were fit to the experimental data and analyzed using regression models. At specified total dose levels of IC50 along the dose response curve, the dose combination (corresponding to IC50) was determined for making EOHSA statistical inferences. […]

[2] = test system: KRAS mutant lines HPAF-11, SW1990, Panc-08-13 and Capan-1; test: as above; format: cell-based; conditions: Homo sapiens; single agent; over HPAF-11, SW1990, Panc-08-13 and Capan-1
Protocol: as §1, §4, §3, §5, §6

Panc-1 = test: Cell growth inhibition assay (Cell Titer Glo), Panc-1; format: cell-based, human; conditions: for IC50: Homo sapiens, 72 h, single agent, Panc-1, KRAS G12D, 3 days; for sensitivity of cell growth (in words): KRAS mutant Panc-1 cells
Protocol: as §1, §4, §3, §5, §6

PL45 = test: Cell growth inhibition assay (Cell Titer Glo), PL45; format: cell-based; conditions: Homo sapiens, 72 h; single agent; PL45, KRAS G12D; 3 days
Protocol: as §1, §2, §3

HuP-T4 = test: Cell growth inhibition assay (Cell Titer Glo), HuP-T4; format: cell-based; conditions: Homo sapiens, 72 h; single agent; HuP-T4, KRAS G12V; 3 days
Protocol: as §1, §2, §3

AsPC-1 = test: Cell growth inhibition assay (Cell Titer Glo), AsPC-1; format: cell-based; conditions: Homo sapiens, ASPC1, 72 h; single agent; AsPC-1, KRAS G12D; 3 days
Protocol: as §1, §2, §3

Structure (SMILES)	IC50 (HPAF-II)	IC50 (Panc-02-03)	IC50 (HPAC)	IC50 (Panc-08-13)	IC50 (Capan-1)	IC50 (Capan-2)	IC50 (BxPC-3)	IC50 (YAPC)	IC50 (SW1990)	IC50 (Mia-PaCa)	IC50 [1]	IC50 [2]	IC50 (Panc-1)	sensitivity of cell growth (in words) (Panc-1)	IC50 (PL45)	IC50 (HuP-T4)	IC50 (AsPC-1)
CC(=O)Nc1cccc(-n2c(=O)n(C3CC3)c(=O)c3c(Nc4ccc(I)cc4F)n(C)c(=O)c(C)c32)c1 [Compound A, N-{3-[3-cyclopropyl-5-(2-fluoro-4-iodo-phenylamino)-6,8-dimethyl-2,4,7-trioxo-3,4,6,7-tetrahydro-2H-pyrido[4,3-d]pyrimidin-1-yl]phenyl}acetamide]	59 ± 53 nM	32 ± 13 nM	21 ± 6 nM	67 ± 14 nM	193 ± 78 nM	10 ± 1 nM	14 nM	> 1000 nM	62 ± 43 nM	59 ± 28 nM	1 to 59 nM	59 to 193 nM	> 1000 nM	resistant	15 ± 4 nM	1 ± 1 nM	5 nM
Nc1ccn([C@@H]2O[C@H](CO)[C@@H](O)C2(F)F)c(=O)n1 [Compound B, 4-amino-1-(2-deoxy-2,2-difluoro-β-D-erythro-pentofuranosyl)pyrimidin-2(1H)-on 2′,2′-difluoro-2′-deoxycytidine]	> 1000 nM	88 ± 17 nM	> 1000 nM	> 1000 nM	> 1000 nM	> 1000 nM	8 nM	12 ± 8 nM	≥ 1000 nM	21 ± 1 nM	7 to 88 nM	> 1000 nM	> 1000 nM	resistant	13 ± 2 nM	7 ± 5 nM	> 1000 nM
